Legend:
Experiment in all cases: relative viability (nuclei count vs DMSO), 5 days (fraction); higher = more cells survive
Carboplatin + Phenformin = compound: C1CC(C1)(C(=O)O)C(=O)O.[NH2-].[NH2-].[Pt+2] [Carboplatin] + N=C(N)NC(=N)NCCc1ccccc1 [Phenformin] (partner 250 µM)
Procedure, shortened: (§1)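 Relative viability divides the nuclei count in treated wells by that in vehicle wells. Lung cancer cell lines were seeded in 1536-well plates, dosed by pin tool the next day, and fixed and stained after 5 days in one step with final 0.05% Triton X-100, 1% formaldehyde and 1 ug/ml Hoechst. Dosing was a single drug or a fixed anchor-drug dose plus five library-drug doses (not always all listed) in √10 steps, and values are medians of duplicate plates imaged at 4×.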

GSK126 + Luminespib = compound: CC[C@H](C)N1C=C(C2=C(C=C(C=C21)C3=CN=C(C=C3)N4CCNCC4)C(=O)NCC5=C(C=C(NC5=O)C)C)C [GSK126] + CCNC(=O)c1noc(-c2cc(C(C)C)c(O)cc2O)c1-c1ccc(CN2CCOCC2)cc1 [Luminespib] (partner 0.01 µM)
Procedure, shortened: as §1

GSK126 + Crizotinib = compound: CC[C@H](C)N1C=C(C2=C(C=C(C=C21)C3=CN=C(C=C3)N4CCNCC4)C(=O)NCC5=C(C=C(NC5=O)C)C)C [GSK126] + C[C@@H](Oc1cc(-c2cnn(C3CCNCC3)c2)cnc1N)c1c(Cl)ccc(F)c1Cl [Crizotinib] (partner 1 µM)
Procedure, shortened: as §1

MLN4924 + Lapatinib = compound: NS(=O)(=O)OC[C@@H]1C[C@@H](n2ccc3c(N[C@H]4CCc5ccccc54)ncnc32)C[C@@H]1O [MLN4924] + CS(=O)(=O)CCNCc1ccc(-c2ccc3ncnc(Nc4ccc(OCc5cccc(F)c5)c(Cl)c4)c3c2)o1 [Lapatinib] (partner 2 µM)
Procedure, shortened: as §1

Row | Cell Line | relative viability (Carboplatin + Phenformin; first compound 0.08 µM) | relative viability (Carboplatin + Phenformin; first compound 0.253 µM) | relative viability (Carboplatin + Phenformin; first compound 0.8 µM) | relative viability (Carboplatin + Phenformin; first compound 2.53 µM) | relative viability (Carboplatin + Phenformin; first compound 8 µM) | relative viability (GSK126 + Luminespib; first compound 0.08 µM) | relative viability (GSK126 + Luminespib; first compound 0.253 µM) | relative viability (GSK126 + Luminespib; first compound 0.8 µM) | relative viability (GSK126 + Luminespib; first compound 2.53 µM) | relative viability (GSK126 + Luminespib; first compound 8 µM) | relative viability (GSK126 + Crizotinib; first compound 0.08 µM) | relative viability (GSK126 + Crizotinib; first compound 0.253 µM) | relative viability (GSK126 + Crizotinib; first compound 0.8 µM) | relative viability (GSK126 + Crizotinib; first compound 2.53 µM) | relative viability (GSK126 + Crizotinib; first compound 8 µM) | relative viability (MLN4924 + Lapatinib; first compound 0.04 µM) | relative viability (MLN4924 + Lapatinib; first compound 0.1265 µM) | relative viability (MLN4924 + Lapatinib; first compound 0.4 µM) | relative viability (MLN4924 + Lapatinib; first compound 1.265 µM) | relative viability (MLN4924 + Lapatinib; first compound 4 µM)
1 | HCC-44 | 0.344 | 0.191 | 0.194 | 0.187 | 0.144 | 1.14 | 1.1 | 1 | 1.11 | 1.16 | 0.766 | 0.864 | 0.788 | 0.64 | 0.78 | 0.657 | 0.249 | 0.159 | 0.142 | 0.145
2 | HCC-78 | 0.829 | 0.685 | 0.641 | 0.726 | 0.744 |  |  |  |  |  | 0.306 | 0.326 | 0.318 | 0.328 | 0.374 | 0.871 | 0.515 | 0.683 | 0.142 | 0.215
3 | HCC-366 | 0.619 | 0.637 | 0.662 | 0.575 | 0.467 |  |  |  |  |  | 0.652 | 0.548 | 0.549 | 0.475 | 0.431 | 0.788 | 0.479 | 0.037 | 0.0233 | 0.0288
4 | HCC-827 | 0.444 | 0.394 | 0.428 | 0.366 | 0.365 | 0.612 | 0.685 | 0.676 | 0.629 | 0.783 | 0.938 | 0.895 | 0.934 | 1.02 | 0.869 | 0.242 | 0.283 | 0.398 | 0.182 | 0.166
5 | HOP-62 | 0.713 | 0.643 | 0.628 | 0.654 | 0.548 | 0.938 | 0.863 | 0.943 | 0.889 | 0.783 | 0.965 | 0.996 | 0.788 | 0.726 | 0.928 | 0.843 | 0.798 | 0.205 | 0.114 | 0.0815
6 | IA-LM |  |  |  |  |  |  |  |  |  |  | 0.831 | 1.12 | 0.79 | 0.729 | 0.947 | 0.256 | 0.239 | 0.103 | 0.0582 | 0.0755
7 | LC-2-ad | 0.661 | 0.551 | 0.525 | 0.517 | 0.386 | 1 | 1.19 | 0.948 | 1.04 | 1.01 | 0.484 | 0.357 | 0.512 | 0.454 | 0.398 | 0.561 | 0.505 | 0.143 | 0.104 | 0.107
8 | LCLC-97TM1 | 0.483 | 0.399 | 0.421 | 0.438 | 0.394 | 0.758 | 0.796 | 0.867 | 0.82 | 0.81 | 0.337 |  | 0.42 | 0.475 | 0.441 | 0.853 | 0.798 | 0.189 | 0.11 | 0.137
9 | LCLC-103H | 0.325 | 0.357 | 0.347 | 0.32 | 0.348 | 1.16 | 0.931 | 0.908 | 1.01 | 0.994 | 1.07 | 1.18 | 1.01 | 1.01 | 1 |  |  |  |  | 
